# Results as given in ChEMBL document CHEMBL4613212, “Insights of synthetic analogues of anti-leprosy agents” (Bioorg Med Chem, 2019).
# Calls of active or inactive are those of the source. The rule behind the calls is not given here.
# System: Mycolicibacterium smegmatis
# Assay: Antimycobacterial activity against DDS sensitive Mycobacterium smegmatis ATCC 607 […]
# Type: functional
# Settings: not given
row,SMILES,MIC [mg/L]
1,Nc1ccc(S(=O)(=O)c2ccc(Br)cc2)cc1,319
2,Nc1ccc(S(=O)(=O)c2ccc(F)cc2)cc1,95
3,CCCCNc1ccc(S(=O)(=O)c2ccc(N)cc2)cc1,110
4,Nc1ccc(S(=O)(=O)c2ccc(Cl)cc2)cc1,432
5,COC(=O)CNc1ccc(S(=O)(=O)c2ccc(N)cc2)cc1,32.8
6,CCCCCCNc1ccc(S(=O)(=O)c2ccc(N)cc2)cc1,> 360
7,Nc1ccc(S(=O)(=O)c2ccc([N+](=O)[O-])cc2)cc1,34.4
8,Nc1ccc(S(=O)(=O)c2ccc(NCCCO)cc2)cc1,19.6
9,Nc1ccc(S(=O)(=O)c2ccc(NO)cc2)cc1 [4-AMINO-4'-HYDROXAMINE-DIPHENYLSULPHONE],18.1
10,Nc1cccc(S(=O)(=O)c2cccc(N)c2)c1,806
11,CCCCCN(CCCCC)c1ccc(S(=O)(=O)c2ccc(N)cc2)cc1,> 257
12,Nc1ccc(S(=O)(=O)c2ccc(NCC(=O)O)cc2)cc1 [ACEDIASULFONE],261
13,CCN(CC)c1ccc(S(=O)(=O)c2ccc(N)cc2)cc1,> 164
14,CNc1ccc(S(=O)(=O)c2ccc(N)cc2)cc1,37.3
15,CCNc1ccc(S(=O)(=O)c2ccc(N)cc2)cc1,54.4
16,O=S(=O)(c1ccc(O)cc1)c1ccc(O)cc1,400
17,Nc1ccc(S(=O)(=O)c2ccccc2N)cc1,44.2
18,CCCCCNc1ccc(S(=O)(=O)c2ccc(N)cc2)cc1,377
19,Nc1ccc(S(=O)(=O)c2ccc(NCCO)cc2)cc1,13.7
20,Nc1ccc(S(=O)(=O)c2ccc(NC=O)cc2)cc1,120
21,CCCNc1ccc(S(=O)(=O)c2ccc(N)cc2)cc1,34.4
22,Nc1ccc(S(=O)(=O)c2ccccc2)cc1,1290

# System: Mycolicibacterium smegmatis
# Assay: Antimycobacterial activity against DDS resistant Mycobacterium smegmatis ATCC 607 […]
# Type: functional
# Settings: not given
row,SMILES,MIC [mg/L]
1,Nc1ccc(S(=O)(=O)c2ccc(F)cc2)cc1,> 1800
2,CCCCNc1ccc(S(=O)(=O)c2ccc(N)cc2)cc1,> 650
3,Nc1ccc(S(=O)(=O)c2ccc(Cl)cc2)cc1,> 600
4,COC(=O)CNc1ccc(S(=O)(=O)c2ccc(N)cc2)cc1,> 800
5,CCCCCCNc1ccc(S(=O)(=O)c2ccc(N)cc2)cc1,> 400
6,Nc1ccc(S(=O)(=O)c2ccc([N+](=O)[O-])cc2)cc1,> 1200
7,Nc1ccc(S(=O)(=O)c2ccc(NCCCO)cc2)cc1,> 2400
8,Nc1ccc(S(=O)(=O)c2ccc(NO)cc2)cc1 [4-AMINO-4'-HYDROXAMINE-DIPHENYLSULPHONE],3000
9,Nc1ccc(S(=O)(=O)c2ccc(NCC(=O)O)cc2)cc1 [ACEDIASULFONE],> 2200
10,CCCCCNc1ccc(S(=O)(=O)c2ccc(N)cc2)cc1,> 500
11,Nc1ccc(S(=O)(=O)c2ccc(NCCO)cc2)cc1,2500
12,Nc1ccc(S(=O)(=O)c2ccc(NC=O)cc2)cc1,> 400
13,CCCNc1ccc(S(=O)(=O)c2ccc(N)cc2)cc1,> 1200
14,Nc1ccc(S(=O)(=O)c2ccccc2)cc1,> 2580

# System: Mycobacterium tuberculosis
# Assay: Antimycobacterial activity against Mycobacterium tuberculosis H37Rv by BACTEC radiometric growth assay
# Type: functional
# Settings: not given
row,SMILES,MIC [mg/L]
1,NC(=O)CS(=O)(=O)CCCCCCc1ccccc1,> 25
2,CCCCCCCCS(=O)(=O)NC(N)=O,> 25
3,C.CCCCCCCCC[S+]([O-])CC(=O)OC (racemic),> 25
4,CCCCCCCCCCS(=O)(=O)CCC(N)=O,> 25
5,CCCCCCCCCCP(=O)([O-])CCC(N)=O.[K+],> 50
6,CCCCCCCCS(=O)(=O)NS(N)(=O)=O,> 25
7,CCCCCCCCC[S@+]([O-])CC(N)=O,25
8,CCCCCCCC[S+]([O-])CC(=O)OCc1ccccc1 (stereo not given),6.25
9,CCCCCCCCC[S+]([O-])CC(=O)OC (stereo not given),6.25
10,CC(=O)Nc1ccc(S(=O)(=O)c2ccc(NC(C)=O)cn2)cc1,12.5
11,NC(=O)CS(=O)(=O)CCCCCc1ccccc1,12.5 to 25
12,CC(C)CCCC(C)CCS(=O)(=O)CC(N)=O (stereo not given),6.25
13,CCCCCCCCC[S@@+]([O-])CC(=O)OC,> 25
14,CC(=O)Nc1ccc(S(=O)(=O)c2ccc(NC(C)=O)c(Cl)c2)cc1,> 25
15,CCOCCOCCS(=O)(=O)CC(N)=O,> 25
16,CCCCCCCCC[S@+]([O-])CC(=O)OC,> 25
17,CCCCCCCCC[S@@+]([O-])CC(N)=O,25

row,SMILES,MIC [mg/L]
1,CCCCCCCCCCS(=O)(=O)C(C)C(N)=O (stereo not given),> 25
2,CCCCCCCCS(=O)(=O)NS(C)(=O)=O,> 25
3,CCCCCCCCOCC(N)=O,> 25
4,NC(=O)CS(=O)(=O)CCCCc1ccccc1,> 25
5,CCCCCCCC/C=C/S(=O)(=O)CC(N)=O,12.5
6,C/C=C/C/C=C/CCC(=O)[C@H]1O[C@H]1C(N)=O [CERULENIN],0.5 to 1.5
7,CCCCCCCCCCSCCC(N)=O,25
8,CC(C)CCCCCCCS(=O)(=O)CC(N)=O,1.5
9,CCCCCCCCCC[S+]([O-])CCC(N)=O (stereo not given),6.25
10,CC[C@@H](CO)NCCN[C@@H](CC)CO [ETHAMBUTOL],2
11,CCCCCCCC[S+]([O-])CC(=O)OC (stereo not given),12.5
12,C=C/C(C)=C/[C@@]1(C)SC(=O)C(C)=C1O [THIOLACTOMYCIN],25
13,CCCCCCCCS(=O)(=O)CC(=O)OC,> 25
14,NC(=O)c1cnccn1 [PYRAZINAMIDE],100
15,C.CCCCCCCCC[S+]([O-])CC(N)=O (racemic),25
16,CCCCCC/C=C/S(=O)(=O)CC(N)=O,12.5
17,CCCCCCCC[S+]([O-])CC(=O)O (stereo not given),> 25

# System: Mycolicibacterium smegmatis
# Assay: Antimicrobial activity against Mycobacterium smegmatis ATCC 607
# Type: functional
# Settings: not given
row,SMILES,MIC [µM]
1,Cl.Cl.OC[C@H]1O[C@@H](n2cnc3c(-c4cccs4)ncnc32)[C@H](O)[C@@H]1O,0.7
2,Cl.OC[C@H]1O[C@@H](n2cnc3c(-c4cccs4)ncnc32)[C@H](O)[C@@H]1O,0.4
3,O.O.OC[C@H]1O[C@@H](n2cnc3c(-c4cccs4)ncnc32)[C@H](O)[C@@H]1O,4
4,O.OC[C@H]1O[C@@H](n2cnc3c(-c4cccs4)ncnc32)[C@H](O)[C@@H]1O,1.75

# Same assay, conditions: Mycolicibacterium smegmatis, ATCC 607; read-out: MIC
row,SMILES,MIC [µM]
1,OC[C@H]1O[C@@H](n2nnc3c(-c4cccs4)ncnc32)[C@H](O)[C@@H]1O,20
2,OC[C@H]1O[C@@H](n2cnc3c(-c4ccns4)ncnc32)[C@H](O)[C@@H]1O,3

# System: Mycobacterium tuberculosis
# Assay: Antitubercular activity against Mycobacterium tuberculosis H37Rv ATCC 27294 assessed as growth inhibition at 6.25 ug/ml by microplate alamar blue assay relative to control
# Type: functional
# Settings: not given
row,SMILES,inhibition at 6.25 µg/mL [%]
1,OC[C@H]1O[C@@H](n2cnc3c(-c4cccs4)ncnc32)[C@H](O)[C@@H]1O,6
2,OC[C@H]1O[C@@H](n2cnc3c(-c4ccco4)ncnc32)[C@H](O)[C@@H]1O,0
3,CC(=O)OC[C@H]1O[C@@H](n2cnc3c(Cl)ncnc32)[C@H](OC(C)=O)[C@@H]1OC(C)=O,4
4,c1coc(-c2[nH]cnc3ncnc2-3)c1,6

# System: Mycobacterium tuberculosis
# Assay: Antitubercular activity against Mycobacterium tuberculosis infected in mouse assessed as reduction in microbial load at 2 to 3 mg ip, pretreated for 48 to 72 hrs followed by microbial infection and subsequent compound dosing at 48 to 72 hrs post-infection measured 24 to 32 days post-infection relative to control
# Type: functional
# Set-up: scale not given: the % may be the effect or the level left
# Settings: not given
row,SMILES,Activity
1,Oc1c2cc(-c3ccccc3)cc1Cc1cc(-c3ccccc3)cc(c1O)Cc1cc(-c3ccccc3)cc(c1O)Cc1cc(-c3ccccc3)cc(c1O)Cc1cc(-c3ccccc3)cc(c1O)Cc1cc(-c3ccccc3)cc(c1O)Cc1cc(-c3ccccc3)cc(c1O)C2,20 - 50%
2,CC(C)(C)c1cc2c(OCCOCCOCCOCCOCCOCCOCCOCCOCCOCCOCCOCCO)c(c1)Cc1cc(C(C)(C)C)cc(c1OCCOCCOCCOCCOCCOCCOCCOCCOCCOCCOCCOCCO)Cc1cc(C(C)(C)C)cc(c1OCCOCCOCCOCCOCCOCCOCCOCCOCCOCCOCCOCCO)Cc1cc(C(C)(C)C)cc(c1OCCOCCOCCOCCOCCOCCOCCOCCOCCOCCOCCOCCO)Cc1cc(C(C)(C)C)cc(c1OCCOCCOCCOCCOCCOCCOCCOCCOCCOCCOCCOCCO)Cc1cc(C(C)(C)C)cc(c1OCCOCCOCCOCCOCCOCCOCCOCCOCCOCCOCCOCCO)Cc1cc(C(C)(C)C)cc(c1OCCOCCOCCOCCOCCOCCOCCOCCOCCOCCOCCOCCO)Cc1cc(C(C)(C)C)cc(c1OCCOCCOCCOCCOCCOCCOCCOCCOCCOCCOCCOCCO)C2,50 - 100%
3,OCCOCCOCCOCCOCCOCCOc1c2cc(-c3ccccc3)cc1Cc1cc(-c3ccccc3)cc(c1OCCOCCOCCOCCOCCOCCO)Cc1cc(-c3ccccc3)cc(c1OCCOCCOCCOCCOCCOCCO)Cc1cc(-c3ccccc3)cc(c1OCCOCCOCCOCCOCCOCCO)Cc1cc(-c3ccccc3)cc(c1OCCOCCOCCOCCOCCOCCO)Cc1cc(-c3ccccc3)cc(c1OCCOCCOCCOCCOCCOCCO)Cc1cc(-c3ccccc3)cc(c1OCCOCCOCCOCCOCCOCCO)C2,20 - 50%
4,CC(C)(C)c1cc2c(OCCOCCOCCOCCOCCOCCO)c(c1)Cc1cc(C(C)(C)C)cc(c1OCCOCCOCCOCCOCCOCCO)Cc1cc(C(C)(C)C)cc(c1OCCOCCOCCOCCOCCOCCO)Cc1cc(C(C)(C)C)cc(c1OCCOCCOCCOCCOCCOCCO)Cc1cc(C(C)(C)C)cc(c1OCCOCCOCCOCCOCCOCCO)Cc1cc(C(C)(C)C)cc(c1OCCOCCOCCOCCOCCOCCO)C2,80 - 100%
5,CC(C)(C)c1cc2c(O)c(c1)Cc1cc(C(C)(C)C)cc(c1O)Cc1cc(C(C)(C)C)cc(c1O)Cc1cc(C(C)(C)C)cc(c1O)Cc1cc(C(C)(C)C)cc(c1O)Cc1cc(C(C)(C)C)cc(c1O)C2,inactive
6,CC(C)(C)CC(C)(C)c1cc2c(O)c(c1)Cc1cc(C(C)(C)CC(C)(C)C)cc(c1OCCOCCOCCOCCOCCOCCO)Cc1cc(C(C)(C)CC(C)(C)C)cc(c1O)Cc1cc(C(C)(C)CC(C)(C)C)cc(c1OCCOCCOCCOCCOCCOCCO)Cc1cc(C(C)(C)CC(C)(C)C)cc(c1O)Cc1cc(C(C)(C)CC(C)(C)C)cc(c1OCCOCCOCCOCCOCCOCCO)Cc1cc(C(C)(C)CC(C)(C)C)cc(c1O)Cc1cc(C(C)(C)CC(C)(C)C)cc(c1OCCOCCOCCOCCOCCOCCO)C2,20 - 50%
7,Oc1c2cc(-c3ccccc3)cc1Cc1cc(-c3ccccc3)cc(c1O)Cc1cc(-c3ccccc3)cc(c1O)Cc1cc(-c3ccccc3)cc(c1O)Cc1cc(-c3ccccc3)cc(c1O)Cc1cc(-c3ccccc3)cc(c1O)Cc1cc(-c3ccccc3)cc(c1O)Cc1cc(-c3ccccc3)cc(c1O)C2,20 - 50%
8,CCCCCCCCCCCCOc1c2cc(S(=O)(=O)O)cc1Cc1cc(S(=O)(=O)O)cc(c1OCCCCCCCCCCCC)Cc1cc(S(=O)(=O)O)cc(c1OCCCCCCCCCCCC)Cc1cc(S(=O)(=O)O)cc(c1OCCCCCCCCCCCC)Cc1cc(S(=O)(=O)O)cc(c1OCCCCCCCCCCCC)Cc1cc(S(=O)(=O)O)cc(c1OCCCCCCCCCCCC)Cc1cc(S(=O)(=O)O)cc(c1OCCCCCCCCCCCC)Cc1cc(S(=O)(=O)O)cc(c1O)C2,50 - 80%
9,CC(C)(C)c1cc2c(O)c(c1)Cc1cc(C(C)(C)C)cc(c1O)Cc1cc(C(C)(C)C)cc(c1O)Cc1cc(C(C)(C)C)cc(c1O)Cc1cc(C(C)(C)C)cc(c1O)Cc1cc(C(C)(C)C)cc(c1O)Cc1cc(C(C)(C)C)cc(c1O)Cc1cc(C(C)(C)C)cc(c1O)C2,20 - 50%
10,CC(C)(C)c1cc2c(O)c(c1)Cc1cc(C(C)(C)C)cc(c1O)Cc1cc(C(C)(C)C)cc(c1O)Cc1cc(C(C)(C)C)cc(c1O)C2,inactive
